Each structure is given as a SMILES string.

The text below walks through data of US8895077B2, “Methods for preventing or treating infectious diseases caused by extracellular microorganisms, including antimicrobial-resistant strains thereof, using gallium compounds” (priority 2007, dated 2014).

Data set [1] concerns Vancomycin-resistant Enterococcus faecalis (VRE). As to the kind of experiment: CLSI Vancomycin disk-diffusion test. To be noted: VRE ATCC 51575; CLSI Vancomycin resistant range: ≦14 mm. Format: cell-based. In general terms: A growth-free zone around the sample is the usual read-out of agar diffusion tests.
Data set [2] concerns Methicillin-resistant Staphylococcus aureus (MRSA). As to the kind of experiment: MIC/MBC susceptibility test, macrodilution broth method. Format: cell-based. To be noted: MRSA ATCC 33592; Tryptic soy agar with 5% sheep blood; 36° C. for 48 hours; 5.2 × 10^5 CFU/ml. The protocol: (§1) Susceptibility of various microorganisms to gallium was tested by determining the minimum inhibitory concentration (MIC) and minimum bactericidal concentration (MBC) for each microorganism using gallium nitrate. In general, MIC is determined by (i) mixing a series of broths, each containing a standard number of microorganisms, with serially diluted solutions of the gallium compound; and (ii) determining the MIC, after incubation, that is the lowest concentration of the gallium compound that inhibits the growth of the microorganism. The lower the MIC, the more susceptible the organism is. The MBC is determined by subculturing an aliquot of each sample from the MIC test on an appropriate agar plate containing no gallium compound.
(§2) Specifically, in the present experiment, two grams of gallium nitrate powder were dissolved in 10 ml of filter-sterilized deionized water and the resulting 20% (w/v) (i.e., 200 mg/ml) solution was once again filter-sterilized. Two-fold serial dilutions were prepared in sterile deionized water down to 0.156% (i.e., 1.56 mg/ml) for the tests for most of the organisms, except for the test for Candida albicans, in which 10%, 1%, 0.5%, 0.1%, 0.05%, 0.01%, 0.005% and 0.001% of gallium nitrate solutions were prepared.
(§3) All organisms were obtained from the American Type Culture Collection (ATCC), Manassas, Va. Each microorganism was picked from the seed culture (see Table 1) and inoculated in an appropriate type of broth to obtain a 0.5 McFarland turbidity standard. The standard suspension of the microorganism was then diluted to 1:100 with the broth and used for the tests.
(§4) Each microorganism was tested in duplicate by either a microdilution broth method in 96-well plates (i.e., 0.1 ml of the gallium nitrate solution mixed with 0.1 ml of the microorganism suspension) or a macrodilution broth method in test tubes (i.e., 1 ml of the gallium nitrate solution mixed with 1 ml of the microorganism suspension) as follows: […]
(§5) The growth of the microorganisms were determined by visual observation of turbidity in the samples. […]

Another data set concerns Salmonella typhi. The data set is described as above. It is filed as cell-based. The following applies: Salmonella typhi ATCC 6539; Tryptic soy agar with 5% sheep blood; 36° C. for 48 hours; 8.3 × 10^5 CFU/ml. As to the method: as §1, §2, §3, §4, §5
Data set [3] relates to Vancomycin-resistant Enterococcus faecalis (VRE). The description is as above. To be noted: VRE ATCC 51575; Tryptic soy agar with 5% sheep blood; 36° C. for 48 hours; 3.9 × 10^5 CFU/ml. It is filed as cell-based. As to the method:
as §1, §2, §3, §4, §5

The test system of a further data set is Campylobacter jejuni. In words: MIC/MBC susceptibility test, microdilution broth method. Format: cell-based. The following applies: Campylobacter jejuni ATCC 29428; Tryptic soy agar with 5% sheep blood; 36° C. for 48 hours; 4.9 × 10^5 CFU/ml. The protocol:
as §1, §2, §3
(§6) Each microorganism was tested in duplicate by either a microdilution broth method in 96-well plates (i.e., 0.1 ml of the gallium nitrate solution mixed with 0.1 ml of the microorganism suspension) or a macrodilution broth method in test tubes (i.e., 1 ml of the gallium nitrate solution mixed with 1 ml of the microorganism suspension) as follows:
(§7) Microdilution broth method: Candida albicans; Escherichia coli O157:H7; and Campylobacter jejuni.
(§8) The growth of the microorganisms were determined by visual observation of turbidity in the samples.
(§9) To determine MBC, 10 μl of each sample used in MIC were inoculated onto an appropriate agar plate and incubated.

In another data set the test system is Candida albicans. The description is as above. Format: cell-based. To be noted: Candida albicans ATCC 10231, 27° C. for 48 hours, 9.75 × 10^5 CFU/ml. As to the method: as §1, §2, §3, §6, §7, §8, §9
The test system of a further data set is Escherichia coli O157:H7. The description is as above. Format: cell-based. The following applies: E. coli O157:H7 ATCC 35150; Tryptic soy agar with 5% sheep blood; 36° C. for 48 hours; 1.38 × 10^6 CFU/ml. As to the method:
as §1, §2, §3, §6, §7, §8, §9

The conditions of data set [4]: healthy adults; intravenous infusion for at least 7 days; from U.S. Pat. No. 6,203,822; cited from earlier work.

Turning to `CN[C@H](CC(C)C)C(=O)N[C@H]1C(=O)N[C@@H](CC(N)=O)C(=O)N[C@H]2C(=O)N[C@H]3C(=O)N[C@H](C(=O)N[C@H](C(=O)O)c4cc(O)cc(O)c4-c4cc3ccc4O)[C@H](O)c3ccc(c(Cl)c3)Oc3cc2cc(c3O[C@@H]2O[C@H](CO)[C@@H](O)[C@H](O)[C@H]2O[C@H]2C[C@](C)(N)[C@H](O)[C@H](C)O2)Oc2ccc(cc2Cl)[C@H]1O` [Vancomycin], in data set [1], the zone of inhibition entry is recorded as “^bAntibiotics resistance of the organism was confirmed by CLSI Vancomycin disk-diffusion test. The zone of inhibition was 10 mm (CLSI Vancomycin resistant range: ≦14 mm)”.
Take `O=[N+]([O-])[O-].O=[N+]([O-])[O-].O=[N+]([O-])[O-].[Ga+3]` [gallium nitrate]: the MBC in data set [2] is 12.5 mg/mL; with Salmonella typhi, 6.25 mg/mL; in data set [3], 25 mg/mL; in the data set with Campylobacter jejuni, under 0.78 mg/mL; with Candida albicans (Sabouraud dextrose agar) it was over 100 mg/mL; with Escherichia coli O157:H7, 6.25 mg/mL. The MIC with Candida albicans (Sabouraud Dextrose broth) is 10 mg/mL. Moreover, the tolerated dose entry in data set [4] is “at least 200 mg/m^2/day”.

A word on the MIC: it is the lowest concentration found to suppress growth.
